Measurements published in ChEMBL document CHEMBL3045210, “Inhibition of trans-Cinnamate 4-Hydroxylase by 4-Amino-5-aryl-2,3-dihydro-3H-1,2,4-triazole-3-thiones” (J Pestic Sci, 2005).
Calls of active or inactive are those of the source. The rule behind the calls is not given here.

Each compound was assayed against T1, Trans-cinnamate 4-monooxygenase (Populus kitakamiensis) (UniProt Q43054) (assay: Mixed-type inhibition of Populus sieboldii x Populus grandidentata trans-cinnamate 4-hydroxylase by Lineweaver-Burk plot analysis).
T1 sequence (whole entry): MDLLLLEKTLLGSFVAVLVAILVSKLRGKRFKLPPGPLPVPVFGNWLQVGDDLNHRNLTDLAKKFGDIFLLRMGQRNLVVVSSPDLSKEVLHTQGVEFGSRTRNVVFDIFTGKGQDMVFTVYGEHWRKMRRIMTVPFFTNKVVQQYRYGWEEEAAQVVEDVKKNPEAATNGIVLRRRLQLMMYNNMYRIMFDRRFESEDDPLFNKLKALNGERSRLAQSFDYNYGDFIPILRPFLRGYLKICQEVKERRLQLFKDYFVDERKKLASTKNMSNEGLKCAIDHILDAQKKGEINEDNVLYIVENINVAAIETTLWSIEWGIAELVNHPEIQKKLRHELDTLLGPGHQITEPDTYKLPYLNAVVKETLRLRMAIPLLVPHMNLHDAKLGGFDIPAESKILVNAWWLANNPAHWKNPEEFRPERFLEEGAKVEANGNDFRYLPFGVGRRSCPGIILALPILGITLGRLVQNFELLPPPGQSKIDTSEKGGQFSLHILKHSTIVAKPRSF

Compound	inhibition
Nn1c(S)nnc1-c1ccccc1	Active

These compounds were tested on Solanum tuberosum (assay: Induction of accumulation of trans-cinnamic acid in Solanum tuberosum (potato) tubers at 0.02 to 20 ng/disk after 24 hr relative to laminarin).
Type: functional

Compound	fold change (FC)
Nn1c(S)nnc1-c1ccccc1	3

Each compound was assayed against T2, Trans-cinnamate 4-monooxygenase (Populus kitakamiensis, UniProt Q43054) (assay: Inhibition of Populus sieboldii x Populus grandidentata trans-cinnamate 4-hydroxylase assessed as p-coumaric acid level).
T2 sequence (Q43054 whole entry): T1 sequence (whole entry)

Compound	IC50
Nn1c(-c2cccnc2)n[nH]c1=S	51 µM
Nn1c(-c2cccs2)n[nH]c1=S	45 µM
Nn1c(-c2ccccc2Cl)n[nH]c1=S	> 100 µM
Nn1c(-c2cccc(F)c2)n[nH]c1=S	3.9 µM
Nn1c(S)nnc1-c1ccco1	> 100 µM
Nn1c(-c2cccc(Cl)c2)n[nH]c1=S	5 µM
Nn1c(-c2ccncc2)n[nH]c1=S	13 µM
Nn1c(S)nnc1-c1ccccc1	0.32 µM
Nn1c(-c2ccc(Cl)cc2)n[nH]c1=S	> 100 µM
Nn1c(-c2ccccn2)n[nH]c1=S	45 µM
Nn1c(-c2ccc(O)cc2)n[nH]c1=S	> 100 µM
Cc1ccc(-c2n[nH]c(=S)n2N)cc1	> 100 µM
Cc1cccc(-c2n[nH]c(=S)n2N)c1	3.6 µM
